Measured values from ChEMBL document CHEMBL5543096 (J Med Chem, 2024).
Activity calls are given as the source filed them. The calls are words filed in the database; no cut-off is given here.

Columns and labels:
[1] = system: Mus musculus; assay: Antidepressant activity in Reserpine-induced depressive C57BL/6J mouse model assessed as decrease in immobility time at 0.1 to 0.3 mg/kg,ip administration measured after 7 days by tail suspension test; assay type: functional, organism-based; conditions: dose 0.1-0.3 mg/kg, time 7.0 day
[2] = system: Mus musculus; assay: Antidepressant activity in chronic restraint stress-induced depressive C57BL/6J mouse model assessed as change in total distance traveled at 25 to 300 microg/kg,ip administrated on day 29 to 33 measured on day 34 by open field test; assay type: functional, organism-based; conditions: dose 25-300 µg/kg, time 6.0 day
[3] = MRT (0 to infinity) in Sprague-Dawley rat at 0.3 mg/kg,iv measured at 0.05 to 24 hrs of post administration by LC-MS/MS analysis; assay type: ADME, organism-based; conditions: in vivo, time 0.05-24 hrs
[4] = biological target: T1, Muscarinic acetylcholine receptor M1 (Homo sapiens, UniProt P11229); assay: Antagonist activity at human muscarinic M1 receptor expressed in CHO cells incubated for 10 mins in presence of acetylcholine by inositol 1-phosphate accumulation assay; assay type: functional, cell-based
T1 sequence (P11229 whole entry): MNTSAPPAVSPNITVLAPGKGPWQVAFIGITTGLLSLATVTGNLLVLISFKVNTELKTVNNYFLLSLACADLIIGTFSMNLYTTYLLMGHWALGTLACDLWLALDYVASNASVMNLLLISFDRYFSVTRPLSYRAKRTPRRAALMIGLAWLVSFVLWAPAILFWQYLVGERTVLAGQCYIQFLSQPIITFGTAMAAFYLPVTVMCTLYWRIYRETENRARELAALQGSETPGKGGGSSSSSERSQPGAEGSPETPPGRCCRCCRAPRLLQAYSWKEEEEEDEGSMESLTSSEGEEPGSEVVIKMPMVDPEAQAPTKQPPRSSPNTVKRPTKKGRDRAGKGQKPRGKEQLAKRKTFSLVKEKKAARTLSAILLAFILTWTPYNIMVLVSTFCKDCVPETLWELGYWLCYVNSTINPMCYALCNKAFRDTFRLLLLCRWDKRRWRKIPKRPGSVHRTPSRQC

[5] = Half life in Sprague-Dawley rat at 0.3 mg/kg,ip measured at 0.05 to 24 hrs of post administration by LC-MS/MS analysis; assay type: ADME, organism-based; conditions: in vivo, time 0.05-24 hrs
[6] = AUC (0 to last) in Sprague-Dawley rat at 0.3 mg/kg,ip measured at 0.05 to 24 hrs of post administration by LC-MS/MS analysis; assay type: ADME, organism-based; conditions: in vivo, time 0.05-24 hrs
[7] = MRT (0 to infinity) in Sprague-Dawley rat at 0.3 mg/kg,ip measured at 0.05 to 24 hrs of post administration by LC-MS/MS analysis; assay type: ADME, organism-based; conditions: in vivo, time 0.05-24 hrs
[8] = Tmax in Sprague-Dawley rat at 0.3 mg/kg,iv measured at 0.05 to 24 hrs of post administration by LC-MS/MS analysis; assay type: ADME, organism-based; conditions: in vivo, time 0.05-24 hrs
[9] = Toxicity in chronic restraint stress-induced depressive C57BL/6J mouse model assessed as decrease in percentage of spontaneous alternation at 4 mg/kg,ip administration by Y-maze test; assay type: organism-based; conditions: in vivo
[10] = system: Mus musculus; assay: Antidepressant activity in chronic restraint stress-induced depressive C57BL/6J mouse model assessed as increase in hippocampal BDNF mRNA expression at 0.3 mg/kg,ip administration measured after 8 hrs by qRT-PCR analysis; assay type: functional, organism-based
[11] = system: Mus musculus; assay: Antidepressant activity in Reserpine-induced depressive ICR mouse model assessed as decrease in immobility time at ip administrated on day 4 to 8 measured on day 10 by forced swimming test; assay type: functional, organism-based; conditions: time 7.0 day
[12] = Toxicity in chronic restraint stress-induced depressive C57BL/6J mouse model assessed as lung pathological change at 25 to 300 microg/kg,ip administrated on day 29 to 33 measured on day 36 by hematoxylin and eosin staining based microscopic analysis; assay type: tissue-based; conditions: in vivo, 192 h, dose 25-300 µg/kg, time 8 day

CN1[C@@H]2C[C@@H](OC(=O)[C@@](F)(CO)c3ccccc3)C[C@H]1[C@@H]1O[C@@H]12
Activity [1]: Active
Activity [2]: inactive
MRT inf [3]: 16.6 min
IC50 [4]: 14.6 nM
half-life [5]: 16.6 min
AUC(0-t) [6]: 24.2 ng·h/mL
MRT inf [7]: 27.3 min
Tmax [8]: 3 min
Activity [9]: Toxic
Activity [10]: Active
Activity [11]: Dose-Dependent Effect
Activity [12]: Non-Toxic
